Measurements: US5578622A, “Isothiazole derivatives and their uses” (Asamura Patent Office, priority 1994, dated 1996)

Tests used:
Rhizoctonia solani = assay: Test for controlling effect on sheath blight of rice; type: in vivo; conditions: 120 h, 200 ppm spray, 24 hours after inoculation, rice 4-leaf stage, five days after inoculation, read-out: Controlling effect (control of disease), Sheath blight of rice
Procedure: 2-3 Test for controlling effect on sheath blight of rice (Rhizoctonia solani) Rice seedlings at the 4-leaf stage were inoculated with the mycelium of sheath blight of rice (Rhizoctonia solani). After 24 hours, a test medicine solution adjusted to 200 ppm was sprayed onto the seedlings. After air-drying, the seedlings were placed in a humid room for 24 hours where the temperature was kept at 28° C. and humidity was kept at 98%. Thereafter, the seedlings were transferred to a greenhouse, and five days after inoculation, the degree of infected area was examined. The control of disease was calculated by comparison with that in the untreated plot. The control of disease is shown as a controlling effect in the same manner as in Test Example 2-1.

Rhizopus nigricans = assay: Test for wood rotting-preventing effect (mycelium growth inhibition on malt extract agar); type: cell-based; conditions: Rhizopus stolonifer, 28° C.±2° C., 2 to 10 days, read-out: Rotting preventing effect (mycelium growth-inhibitory rate), RHN
Procedure: (§1) The following fungi were cultured in agar media, respectively, and mycelial disks on the media were stamped out together with the agar using a cork borer of 4 mm in diameter. The resulting mycelial disks on agar were used as an inoculum. Each test compound of 50 ppm was added to a malt extract agar medium and added in parts to Petri dishes. The above prepared inoculum was put on the Petri dishes and cultured at 28° C.±2° C. Two to ten days after inoculation, the diameter of the mycelial disk of each fungus was measured, and the mycelium growth-inhibitory rate was obtained according to the following equation. [formula] The mycelium growth-inhibitory rate (%) is indicated by the following symbols as a fungicidal effect on each fungus, and the results are shown in Table 2. | RHN: Rhizopus nigricans

Trichoderma viride = assay: as above; type: cell-based; conditions: 28° C.±2° C., 2 to 10 days, read-out: Rotting preventing effect (mycelium growth-inhibitory rate), TRV
Procedure: as §1, with “TRV: Trichoderma viride” for “RHN: Rhizopus nigricans”

Aspergillus niger = assay: as above; type: cell-based; conditions: 28° C.±2° C., 2 to 10 days, read-out: Rotting preventing effect (mycelium growth-inhibitory rate), ASN
Procedure: as §1, with “ASN: Aspergillus niger” for “RHN: Rhizopus nigricans”

[1] = system: Pseudoperonospora cubensis; assay: Test for controlling effect on downy mildew of cucumber; type: in vivo; conditions: 168 h, 200 ppm spray, one day before inoculation, cucumber 2-leaf stage, read-out: Controlling effect (control of disease), Downy mildew of cucumber
Procedure: 2-2 Test for controlling effect on downy mildew of cucumber (Pseudoperonospora cubensis) A test compound adjusted to 200 ppm was sprayed onto cucumber at the 2-leaf stage cultivated in pots. After one day, the cucumber was inoculated by spraying the zoospore suspension of Pseudoperonospora cubensis. After inoculation, the cucumber was placed in a 25° C.-humid room for 1 day and then in a greenhouse for 6 days. Thus, the cucumber was made to be infected with downy mildew. The control of disease of the test compound is calculated by comparing the degree of infection of each leaf with that in the untreated plot. The control of disease is shown as a controlling effect in the same manner as in Test Example 2-1.

Tyromyces palustris = assay: Test for wood rotting-preventing effect (mycelium growth inhibition on malt extract agar); type: cell-based; conditions: 28° C.±2° C., 2 to 10 days, read-out: Rotting preventing effect (mycelium growth-inhibitory rate), TYP
Procedure: as §1, with “TYP: Tyromyces palustris” for “RHN: Rhizopus nigricans”

[2] = system: Gibberella fujikuroi ("Bakanae" disease of rice); assay: Test for rice seed-disinfecting effect; type: in vivo; conditions: Fusarium fujikuroi, 504 h, seed immersion 25° C. 24 hours, three weeks after treatment, read-out: Controlling effect (control of disease), "Bakanae" disease of rice
Procedure: 2-1 Test for rice seed-disinfecting effect
Unhulled rice infected with Gibberella fujikuroi ("Bakanae" disease of rice) was immersed in a test compound adjusted to 1000 ppm at 25° C. for 24 hours. Water was lightly swished off the seed, which was then sowed and germinated for two days. Three weeks after treatment with the solution containing the compound, the rate of the infected seedlings was examined, and the control of disease was calculated by comparison with that of the untreated plot. The control of disease was shown as a controlling effect on the basis of the following standard.

CSc1snc(OCOC(C)(C)C#CI)c1C#N [Compound 100, 3-(3-iodo-l,l-dimethyl-2-propynyloxymethyloxy)-4-cyano-5-methylthioisothiazole]
80 to 94%: inhibition at 50 ppm (Rhizopus nigricans) | inhibition at 50 ppm (Aspergillus niger)
95 to 100%: pest or weed control at 200 ppm (Rhizoctonia solani) | inhibition at 50 ppm (Trichoderma viride) | pest or weed control at 200 ppm [1] | inhibition at 50 ppm (Tyromyces palustris) | pest or weed control at 1000 ppm [2]

COc1nsc(SCOCC#CI)c1C#N [Compound 53, 3-methoxy-4-cyano-5-(3-iodo-2-propynyloxymethylthio)isothiazole]
80 to 94%: inhibition at 50 ppm (Rhizopus nigricans)
95 to 100%: pest or weed control at 200 ppm (Rhizoctonia solani) | inhibition at 50 ppm (Trichoderma viride) | inhibition at 50 ppm (Aspergillus niger) | pest or weed control at 200 ppm [1] | inhibition at 50 ppm (Tyromyces palustris) | pest or weed control at 1000 ppm [2]

N#Cc1c(OCC#CI)nsc1N1CCOCC1 [Compound 35]
80 to 94%: pest or weed control at 200 ppm (Rhizoctonia solani) | inhibition at 50 ppm (Rhizopus nigricans) | pest or weed control at 1000 ppm [2]
95 to 100%: inhibition at 50 ppm (Trichoderma viride) | inhibition at 50 ppm (Aspergillus niger) | pest or weed control at 200 ppm [1] | inhibition at 50 ppm (Tyromyces palustris)

CCSc1snc(OCOCC#CI)c1C#N [Compound 86, 3-(3-iodo-2-propynyloxymethyloxy)-4-cyano-5-ethylthioisothiazole]
80 to 94%: pest or weed control at 200 ppm (Rhizoctonia solani)
95 to 100%: inhibition at 50 ppm (Rhizopus nigricans) | inhibition at 50 ppm (Trichoderma viride) | inhibition at 50 ppm (Aspergillus niger) | pest or weed control at 200 ppm [1] | inhibition at 50 ppm (Tyromyces palustris) | pest or weed control at 1000 ppm [2]

CC(OCC#CI)Sc1snc(OC(F)F)c1C#N (stereo not shown) [Compound 127]
95 to 100%: pest or weed control at 200 ppm (Rhizoctonia solani) | inhibition at 50 ppm (Rhizopus nigricans) | inhibition at 50 ppm (Trichoderma viride) | inhibition at 50 ppm (Aspergillus niger) | pest or weed control at 200 ppm [1] | inhibition at 50 ppm (Tyromyces palustris) | pest or weed control at 1000 ppm [2]

COc1nsc(OCCC#CI)c1C#N [Compound 80, 3-methoxy-4-cyano-5-(4-iodo-3-butynyloxy)isothiazole]
95 to 100%: inhibition at 50 ppm (Rhizopus nigricans) | inhibition at 50 ppm (Trichoderma viride) | inhibition at 50 ppm (Aspergillus niger) | pest or weed control at 200 ppm [1] | inhibition at 50 ppm (Tyromyces palustris) | pest or weed control at 1000 ppm [2]
80 to 94%: pest or weed control at 200 ppm (Rhizoctonia solani)

CC(C)(C#CI)OCOc1nsc(S(C)(=O)=O)c1C#N [Compound 103]
80 to 94%: inhibition at 50 ppm (Rhizopus nigricans)
95 to 100%: pest or weed control at 200 ppm (Rhizoctonia solani) | inhibition at 50 ppm (Trichoderma viride) | inhibition at 50 ppm (Aspergillus niger) | pest or weed control at 200 ppm [1] | inhibition at 50 ppm (Tyromyces palustris) | pest or weed control at 1000 ppm [2]
